Source: paper PMC9784969, “SARS-CoV-2 Inhibitors Identified by Phenotypic Analysis of a Collection of Viral RNA-Binding Molecules” (Pharmaceuticals, 2022)
Read-outs that look alike come from different tables or passages of the source.

Tests used:
5_SL2+3 RNA = experiment: ligand-based 1H NMR (1D, CPMG, wLOGSY); assay type: binding, SARS-CoV-2
in vitro = conditions: human, uninfected 293T-ACE2 cells
[1] = system: subdomain IIa of the internal ribosome entry site (IRES) RNA of HCV; design: method as in earlier work; conditions: ref 6 (Table S1 list: Martín-Villamil et al. 2022); cited from earlier work
ORF7b RNA = experiment: ligand-based 1H NMR (1D, CPMG, wLOGSY); assay type: binding, SARS-CoV-2
3_SL1+2 RNA = assay type: binding
[2] = average of aliphatic protons, RNA:ligand 1:100 (clomiphene) or 1:50 (trim, qz2)
[3] = average of aromatic protons, RNA:ligand 1:100 (clomiphene) or 1:50 (trim, qz2)

Compound: CC(C)CCN1CCC(CNc2nc3ccccc3c(=O)[nH]2)CC1 [qz2]
- CPMG variation (5_SL2+3 RNA; [2]): -3.85%
- LB (5_SL2+3 RNA; [2]): -0.01%
- LOGSY factor (5_SL2+3 RNA; [2]): 2.85%
- CPMG variation (5_SL2+3 RNA; [3]): 4.67%
- LB (5_SL2+3 RNA; [3]): 1.97%
- LOGSY factor (5_SL2+3 RNA; [3]): 5.80%
- CPMG variation (5_SL2+3 RNA; qz2 peak A, RNA:ligand 1:50): 3.62%
- LB (5_SL2+3 RNA; qz2 peak A, RNA:ligand 1:50): 6.29%
- LOGSY factor (5_SL2+3 RNA; qz2 peak A, RNA:ligand 1:50): 1.74%
- CPMG variation (5_SL2+3 RNA; qz2 peak C/D, RNA:ligand 1:50): -2.36%
- LB (5_SL2+3 RNA; qz2 peak C/D, RNA:ligand 1:50): -0.32%
- LOGSY factor (5_SL2+3 RNA; qz2 peak C/D, RNA:ligand 1:50): 3.84%
- CPMG variation (5_SL2+3 RNA; qz2 peak E/B, RNA:ligand 1:50): -11.8%
- LB (5_SL2+3 RNA; qz2 peak E/B, RNA:ligand 1:50): 8.30%
- LOGSY factor (5_SL2+3 RNA; qz2 peak E/B, RNA:ligand 1:50): 4.57%
- CPMG variation (5_SL2+3 RNA; qz2 peak F, RNA:ligand 1:50): -1.52%
- LB (5_SL2+3 RNA; qz2 peak F, RNA:ligand 1:50): -13.0%
- LOGSY factor (5_SL2+3 RNA; qz2 peak F, RNA:ligand 1:50): 2.30%
- CPMG variation (5_SL2+3 RNA; qz2 peak G, RNA:ligand 1:50): -3.33%
- LB (5_SL2+3 RNA; qz2 peak G, RNA:ligand 1:50): 3.46%
- LOGSY factor (5_SL2+3 RNA; qz2 peak G, RNA:ligand 1:50): 1.79%
- CPMG variation (5_SL2+3 RNA; qz2 peak I, RNA:ligand 1:50): 4.89%
- LB (5_SL2+3 RNA; qz2 peak I, RNA:ligand 1:50): 5.64%
- LOGSY factor (5_SL2+3 RNA; qz2 peak I, RNA:ligand 1:50): 6.13%
- CPMG variation (5_SL2+3 RNA; qz2 peak J, RNA:ligand 1:50): 5.88%
- LB (5_SL2+3 RNA; qz2 peak J, RNA:ligand 1:50): -6.27%
- LOGSY factor (5_SL2+3 RNA; qz2 peak J, RNA:ligand 1:50): 7.22%
- CPMG variation (5_SL2+3 RNA; qz2 peak K, RNA:ligand 1:50): 3.01%
- LB (5_SL2+3 RNA; qz2 peak K, RNA:ligand 1:50): 6.54%
- LOGSY factor (5_SL2+3 RNA; qz2 peak K, RNA:ligand 1:50): 4.04%
- CC50 at 2 days (in vitro): > 6.6 µM
- Previous target RNA binding [1]: yes
- LB (ORF7b RNA; [2]): -7.94%
- LOGSY factor (ORF7b RNA; [2]): 6.35%
- CPMG variation (ORF7b RNA; [3]): 50.7%
- LB (ORF7b RNA; [3]): 26.2%
- LOGSY factor (ORF7b RNA; [3]): 33.7%
- CPMG variation (ORF7b RNA; qz2 peak A, RNA:ligand 1:50): -33.2%
- LB (ORF7b RNA; qz2 peak A, RNA:ligand 1:50): -5.02%
- LOGSY factor (ORF7b RNA; qz2 peak A, RNA:ligand 1:50): 3.94%
- CPMG variation (ORF7b RNA; qz2 peak C/D, RNA:ligand 1:50): -34.1%
- LB (ORF7b RNA; qz2 peak C/D, RNA:ligand 1:50): -10.7%
- LOGSY factor (ORF7b RNA; qz2 peak C/D, RNA:ligand 1:50): 9.65%
- CPMG variation (ORF7b RNA; qz2 peak E/B, RNA:ligand 1:50): -16.1%
- LB (ORF7b RNA; qz2 peak E/B, RNA:ligand 1:50): -1.09%
- LOGSY factor (ORF7b RNA; qz2 peak E/B, RNA:ligand 1:50): 5.54%
- CPMG variation (ORF7b RNA; qz2 peak F, RNA:ligand 1:50): -4.16%
- LB (ORF7b RNA; qz2 peak F, RNA:ligand 1:50): -14.4%
- LOGSY factor (ORF7b RNA; qz2 peak F, RNA:ligand 1:50): 6.18%
- CPMG variation (ORF7b RNA; qz2 peak G, RNA:ligand 1:50): -19.2%
- LB (ORF7b RNA; qz2 peak G, RNA:ligand 1:50): -8.90%
- LOGSY factor (ORF7b RNA; qz2 peak G, RNA:ligand 1:50): 6.45%
- CPMG variation (ORF7b RNA; qz2 peak I, RNA:ligand 1:50): 48.3%
- LB (ORF7b RNA; qz2 peak I, RNA:ligand 1:50): 30.9%
- LOGSY factor (ORF7b RNA; qz2 peak I, RNA:ligand 1:50): 7.00%
- CPMG variation (ORF7b RNA; qz2 peak J, RNA:ligand 1:50): 45.5%
- LB (ORF7b RNA; qz2 peak J, RNA:ligand 1:50): 38.3%
- LOGSY factor (ORF7b RNA; qz2 peak J, RNA:ligand 1:50): 76.3%
- CPMG variation (ORF7b RNA; qz2 peak K, RNA:ligand 1:50): 58.5%
- LB (ORF7b RNA; qz2 peak K, RNA:ligand 1:50): 9.52%
- LOGSY factor (ORF7b RNA; qz2 peak K, RNA:ligand 1:50): 17.9%
- LB (3_SL1+2 RNA; [2]): -2.14%
- LOGSY factor (3_SL1+2 RNA; [2]): 4.45%
- CPMG variation (3_SL1+2 RNA; [3]): 10.7%
- LB (3_SL1+2 RNA; [3]): 13.1%
- LOGSY factor (3_SL1+2 RNA; [3]): 11.5%
- CPMG variation (3_SL1+2 RNA; qz2 peak A, RNA:ligand 1:50): -13.7%
- LB (3_SL1+2 RNA; qz2 peak A, RNA:ligand 1:50): -2.06%
- LOGSY factor (3_SL1+2 RNA; qz2 peak A, RNA:ligand 1:50): 2.25%
- CPMG variation (3_SL1+2 RNA; qz2 peak C/D, RNA:ligand 1:50): -16.2%
- LB (3_SL1+2 RNA; qz2 peak C/D, RNA:ligand 1:50): -4.34%
- LOGSY factor (3_SL1+2 RNA; qz2 peak C/D, RNA:ligand 1:50): 7.61%
- CPMG variation (3_SL1+2 RNA; qz2 peak E/B, RNA:ligand 1:50): -19.5%
- LB (3_SL1+2 RNA; qz2 peak E/B, RNA:ligand 1:50): 7.16%
- LOGSY factor (3_SL1+2 RNA; qz2 peak E/B, RNA:ligand 1:50): 3.76%
- CPMG variation (3_SL1+2 RNA; qz2 peak F, RNA:ligand 1:50): -4.16%
- LB (3_SL1+2 RNA; qz2 peak F, RNA:ligand 1:50): -9.61%
- LOGSY factor (3_SL1+2 RNA; qz2 peak F, RNA:ligand 1:50): 3.95%
- CPMG variation (3_SL1+2 RNA; qz2 peak G, RNA:ligand 1:50): -11.4%
- LB (3_SL1+2 RNA; qz2 peak G, RNA:ligand 1:50): -3.71%
- LOGSY factor (3_SL1+2 RNA; qz2 peak G, RNA:ligand 1:50): 4.70%
- CPMG variation (3_SL1+2 RNA; qz2 peak I, RNA:ligand 1:50): 11.7%
- LB (3_SL1+2 RNA; qz2 peak I, RNA:ligand 1:50): 11.8%
- LOGSY factor (3_SL1+2 RNA; qz2 peak I, RNA:ligand 1:50): 15.1%
- CPMG variation (3_SL1+2 RNA; qz2 peak J, RNA:ligand 1:50): 11.1%
- LB (3_SL1+2 RNA; qz2 peak J, RNA:ligand 1:50): 21.8%
- LOGSY factor (3_SL1+2 RNA; qz2 peak J, RNA:ligand 1:50): 16.0%
- CPMG variation (3_SL1+2 RNA; qz2 peak K, RNA:ligand 1:50): 8.91%
- LB (3_SL1+2 RNA; qz2 peak K, RNA:ligand 1:50): 5.71%
- LOGSY factor (3_SL1+2 RNA; qz2 peak K, RNA:ligand 1:50): 3.38%
